Assay results published in patent US9273092B2, “Selective binding compounds” (RIOGIN Corporation, priority 2011, dated 2016).

Biological target: hSA (Homo sapiens, UniProt P02768)
Experiment: hSA binding assay (hSA-coated microtiter plate, streptavidin-polyHRP/ABTS, OD 405 nm)
Conditions: for Bmax: given only for compounds with an Exp 2 value
Description: hSA binding assay. Microtiter 96 well plate is coated, overnight at 4° C., using […] of a solution of hSA in PBS ([…]). Plate is washed with PBS and blocked, for 1 hours, using 150 ml, per well, of a 10% solution of Tween 20 in water. After 1 hour the wells are washed with PBS. The hSA binders tested are dissolved in PBS, 100 ml of the tested solutions are then added in the well and incubated for 2 hours. After 2 hours, the solution are discarded and the wells are washed using PBS, 0.1% Tween 20. 100 ml of a solution of streptavidin-polyHRP in PBS 1.375% casein is added to the wells and incubated for 1 more hours. Finally wells are washed with PBS, 0.1% Tween 20, and 100 ml ABTS in phosphate-citrate buffer with sodium perborate is added. After a few minutes OD are read at 405 nm.
A plurality of compounds according to the invention were prepared. All of the compounds contained the Cys-Pro-Cys moiety. These compounds and an assay control were tested using the above procedure. Some compounds were tested twice (Exp 1 and Exp 2).

Sequence of hSA (P02768 25-609): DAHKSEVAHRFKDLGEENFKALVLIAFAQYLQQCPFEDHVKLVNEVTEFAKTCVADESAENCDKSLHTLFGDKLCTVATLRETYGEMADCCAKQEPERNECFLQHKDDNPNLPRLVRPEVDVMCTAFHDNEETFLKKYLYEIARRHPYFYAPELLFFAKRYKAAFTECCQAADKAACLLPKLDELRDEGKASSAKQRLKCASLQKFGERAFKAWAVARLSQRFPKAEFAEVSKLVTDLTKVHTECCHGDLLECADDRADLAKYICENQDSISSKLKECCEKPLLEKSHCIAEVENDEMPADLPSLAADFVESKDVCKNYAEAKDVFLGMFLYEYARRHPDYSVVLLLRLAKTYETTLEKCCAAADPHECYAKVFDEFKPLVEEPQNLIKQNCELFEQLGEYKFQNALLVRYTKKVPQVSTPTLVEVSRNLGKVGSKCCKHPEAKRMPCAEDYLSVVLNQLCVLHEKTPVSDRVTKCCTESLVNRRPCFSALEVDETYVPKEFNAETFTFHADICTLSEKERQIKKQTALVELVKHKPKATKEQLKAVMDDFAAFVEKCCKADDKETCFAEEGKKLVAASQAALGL

Binding, Exp 1 | Binding, Exp 2 | Bmax | Sequence
0.05545 | – | – | KLIEDICPCVW [Compound 15, KLIEDI-VW, "-" represents cysteine-proline-cysteine]
1.877 | – | – | RLIEDICPCLH [Compound 63, RLIEDI-LH, "-" represents cysteine-proline-cysteine]
0.08742 | – | – | KLIEDICPCLW [Compound 26, KLIEDI-LW, "-" represents cysteine-proline-cysteine]
0.02504 | – | – | KLISDICPCLW [Compound 3, KLISDI-LW, "-" represents cysteine-proline-cysteine]
0.8196 | – | – | RLIEDECPCLW [Compound 58, RLIEDE-LW, "-" represents cysteine-proline-cysteine]
0.1327 | – | – | KLIEDICPCTW [Compound 35, KLIEDI-TW, "-" represents cysteine-proline-cysteine]
1.031 | – | – | RLIEDICPCAW [Compound 59, RLIEDI-AW, "-" represents cysteine-proline-cysteine]
0.3066 | 0.1771 | 1.048 | KLIQDICPCLW [Compound 51, KLIQDI-LW, "-" represents cysteine-proline-cysteine]
0.04197 | – | – | KLLEDICPCLW [Compound 9, KLLEDI-LW, "-" represents cysteine-proline-cysteine]
2.575 | 0.1137 | 0.3906 | KVIEDICPCLW [Compound 64, KVIEDI-LW, "-" represents cysteine-proline-cysteine]
0.03473 | 0.1216 | 1.036 | RLIADICPCLW [Compound 4, RLIADI-LW, "-" represents cysteine-proline-cysteine]
0.08281 | – | – | KLIEDICPCAW [Compound 25, KLIEDI-AW, "-" represents cysteine-proline-cysteine]
0.1126 | – | – | RLIEDICPCTW [Compound 32, RLIEDI-TW, "-" represents cysteine-proline-cysteine]
0.03868 | – | – | KLIEVICPCLW [Compound 5, KLIEVI-LW, "-" represents cysteine-proline-cysteine]
– | 0.1909 | 0.8584 | RLIQICPCLW [Compound 97, RLIQI-LW, "-" represents cysteine-proline-cysteine]
